Target: T1, Gonadotropin-releasing hormone receptor (Rattus norvegicus, UniProt P30969)
T1 sequence (P30969 whole entry): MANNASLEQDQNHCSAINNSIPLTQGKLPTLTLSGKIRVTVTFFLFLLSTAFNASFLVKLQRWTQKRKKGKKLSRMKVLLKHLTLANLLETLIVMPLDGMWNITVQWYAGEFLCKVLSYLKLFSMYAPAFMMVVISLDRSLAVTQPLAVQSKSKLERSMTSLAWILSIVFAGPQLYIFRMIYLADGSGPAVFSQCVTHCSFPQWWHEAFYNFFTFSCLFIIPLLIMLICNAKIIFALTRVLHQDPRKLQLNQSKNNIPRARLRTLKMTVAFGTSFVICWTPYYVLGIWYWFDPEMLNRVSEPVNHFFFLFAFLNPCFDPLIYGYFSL
Assay: Evaluated for gonadotropin-releasing hormone receptor binding by displacing the 50% of the bound tracer [125I][D-Lys6]-GnRH radioligand in rat pituitary receptors

CC(C)C[C@H](NC(=O)[C@@H](CCCCNC(=O)CCCC(=O)OCc1ccc2c(c1)C(=O)c1ccccc1C2=O)NC(=O)[C@H](Cc1ccc(O)cc1)NC(=O)[C@H](CO)NC(=O)[C@H](Cc1c[nH]c2ccccc12)NC(=O)[C@H](Cc1c[nH]cn1)NC(=O)[C@@H]1CCC(=O)N1)C(=O)N[C@@H](CCCNC(=N)N)C(=O)N1CCC[C@H]1C(=O)NCC(N)=O gave an IC50 of 2 pM.

Reference: ChEMBL document CHEMBL1134660, “Design, synthesis, and evaluation of a long-acting, potent analogue of gonadotropin-releasing hormone” (J Med Chem, 2001)
